Patent US10526316B2, “Quinoxaline and pyridopyrazine derivatives as PI3Kβ inhibitors” (Janssen Pharmaceutica NV, priority 2015, dated 2020)
Like-named read-outs stand apart in the source and are kept apart here.

Assays:
[1] = system: Akt phosphorylated at Ser473 in PC-3 cells; assay: Cellular assay: phosphorylation of Akt at Ser473 in PC-3 cells (MSD ELISA); format: cell-based; conditions: PC-3 cells, 60 min compound incubation, MSD ELISA, read-out: IC50 pAkt_S473
In short: (§1)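 Phospho-Akt in whole-cell lysates is quantified by electrochemiluminescent immunoassay using phospho-site capture and total-Akt detection antibodies.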

[2] = biological target: T1, kinase enzymes (Homo sapiens, UniProt P42336); assay: Enzyme binding assay (KINOMEscan, DiscoveRx), further kinases of Table A; conditions: PIK3Cα_h
T1 construct: purchased DiscoveRx Corporation, San Diego (contract service, KINOMEscan)
T1 sequence (P42336 whole entry): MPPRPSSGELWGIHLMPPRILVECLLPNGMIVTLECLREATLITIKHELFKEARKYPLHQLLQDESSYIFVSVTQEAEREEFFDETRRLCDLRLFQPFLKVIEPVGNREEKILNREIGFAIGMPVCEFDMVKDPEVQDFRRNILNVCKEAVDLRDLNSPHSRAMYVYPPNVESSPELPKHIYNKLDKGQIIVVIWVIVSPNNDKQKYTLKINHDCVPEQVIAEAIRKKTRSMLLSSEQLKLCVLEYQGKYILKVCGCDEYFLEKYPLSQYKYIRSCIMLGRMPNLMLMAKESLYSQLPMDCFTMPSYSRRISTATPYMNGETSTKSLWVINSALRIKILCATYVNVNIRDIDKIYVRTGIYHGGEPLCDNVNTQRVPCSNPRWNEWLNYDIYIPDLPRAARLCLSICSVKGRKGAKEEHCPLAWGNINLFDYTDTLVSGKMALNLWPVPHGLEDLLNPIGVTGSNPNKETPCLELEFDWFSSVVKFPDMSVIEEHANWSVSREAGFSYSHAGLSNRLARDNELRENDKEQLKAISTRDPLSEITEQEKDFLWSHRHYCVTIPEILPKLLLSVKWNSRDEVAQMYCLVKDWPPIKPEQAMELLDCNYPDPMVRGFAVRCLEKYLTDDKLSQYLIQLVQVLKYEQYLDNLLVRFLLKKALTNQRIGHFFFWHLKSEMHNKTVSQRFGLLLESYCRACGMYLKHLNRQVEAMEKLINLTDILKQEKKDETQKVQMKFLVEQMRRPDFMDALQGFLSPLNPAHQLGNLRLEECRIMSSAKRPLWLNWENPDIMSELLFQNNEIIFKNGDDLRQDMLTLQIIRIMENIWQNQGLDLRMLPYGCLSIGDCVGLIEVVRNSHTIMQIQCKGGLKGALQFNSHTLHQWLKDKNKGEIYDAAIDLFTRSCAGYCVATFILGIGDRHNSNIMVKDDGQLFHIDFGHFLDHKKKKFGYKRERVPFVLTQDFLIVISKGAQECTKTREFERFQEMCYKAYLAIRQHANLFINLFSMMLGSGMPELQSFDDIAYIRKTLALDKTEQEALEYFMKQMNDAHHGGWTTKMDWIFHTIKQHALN
In short: (§2)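 Kinase binding measured via KINOMEscan, reported as affinity.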

[3] = biological target: T2, kinase enzymes (Homo sapiens, UniProt P48736); assay: as above; conditions: PIK3Cγ_h
T2 construct: purchased DiscoveRx Corporation, San Diego (contract service, KINOMEscan)
T2 sequence (P48736 whole entry): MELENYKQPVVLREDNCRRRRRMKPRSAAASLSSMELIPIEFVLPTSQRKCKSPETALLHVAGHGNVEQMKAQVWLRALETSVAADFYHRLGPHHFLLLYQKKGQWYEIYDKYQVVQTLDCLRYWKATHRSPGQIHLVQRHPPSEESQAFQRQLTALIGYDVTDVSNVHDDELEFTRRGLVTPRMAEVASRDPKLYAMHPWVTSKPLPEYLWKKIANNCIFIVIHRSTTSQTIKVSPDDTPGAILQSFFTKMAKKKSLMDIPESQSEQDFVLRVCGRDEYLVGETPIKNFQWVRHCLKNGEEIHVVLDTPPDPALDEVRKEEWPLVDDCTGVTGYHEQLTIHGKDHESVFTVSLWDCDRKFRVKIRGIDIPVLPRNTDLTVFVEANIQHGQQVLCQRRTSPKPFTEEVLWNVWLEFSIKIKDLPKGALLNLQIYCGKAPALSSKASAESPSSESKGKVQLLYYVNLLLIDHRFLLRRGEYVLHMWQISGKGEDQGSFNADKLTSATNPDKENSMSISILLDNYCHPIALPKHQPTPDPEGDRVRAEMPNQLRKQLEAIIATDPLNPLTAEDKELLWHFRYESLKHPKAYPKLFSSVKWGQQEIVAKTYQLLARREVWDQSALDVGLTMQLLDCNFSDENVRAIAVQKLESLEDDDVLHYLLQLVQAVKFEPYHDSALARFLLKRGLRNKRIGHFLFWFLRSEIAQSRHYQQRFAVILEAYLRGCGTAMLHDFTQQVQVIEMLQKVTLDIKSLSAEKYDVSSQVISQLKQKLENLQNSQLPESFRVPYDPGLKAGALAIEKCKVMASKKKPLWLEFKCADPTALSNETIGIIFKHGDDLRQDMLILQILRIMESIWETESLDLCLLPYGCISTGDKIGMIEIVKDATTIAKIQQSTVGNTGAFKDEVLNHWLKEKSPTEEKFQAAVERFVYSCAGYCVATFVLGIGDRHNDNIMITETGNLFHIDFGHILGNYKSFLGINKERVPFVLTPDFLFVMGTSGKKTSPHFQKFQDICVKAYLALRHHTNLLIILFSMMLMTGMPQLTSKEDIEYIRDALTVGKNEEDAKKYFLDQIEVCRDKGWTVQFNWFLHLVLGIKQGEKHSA
In short: as §2

[4] = biological target: T3, kinase enzymes (Homo sapiens, UniProt P42345); assay: as above; conditions: MTOR_h
T3 construct: purchased DiscoveRx Corporation, San Diego (contract service, KINOMEscan)
In short: as §2

[5] = biological target: T4, PI3Kβ (Homo sapiens, UniProt P42338); assay: Enzyme binding assay (KINOMEscan, DiscoveRx); conditions: PIK3Cβ_h, read-out: Kd PIK3Cβ_h
T4 construct: purchased DiscoveRx Corporation, San Diego (contract service, KINOMEscan)
T4 sequence (P42338 whole entry): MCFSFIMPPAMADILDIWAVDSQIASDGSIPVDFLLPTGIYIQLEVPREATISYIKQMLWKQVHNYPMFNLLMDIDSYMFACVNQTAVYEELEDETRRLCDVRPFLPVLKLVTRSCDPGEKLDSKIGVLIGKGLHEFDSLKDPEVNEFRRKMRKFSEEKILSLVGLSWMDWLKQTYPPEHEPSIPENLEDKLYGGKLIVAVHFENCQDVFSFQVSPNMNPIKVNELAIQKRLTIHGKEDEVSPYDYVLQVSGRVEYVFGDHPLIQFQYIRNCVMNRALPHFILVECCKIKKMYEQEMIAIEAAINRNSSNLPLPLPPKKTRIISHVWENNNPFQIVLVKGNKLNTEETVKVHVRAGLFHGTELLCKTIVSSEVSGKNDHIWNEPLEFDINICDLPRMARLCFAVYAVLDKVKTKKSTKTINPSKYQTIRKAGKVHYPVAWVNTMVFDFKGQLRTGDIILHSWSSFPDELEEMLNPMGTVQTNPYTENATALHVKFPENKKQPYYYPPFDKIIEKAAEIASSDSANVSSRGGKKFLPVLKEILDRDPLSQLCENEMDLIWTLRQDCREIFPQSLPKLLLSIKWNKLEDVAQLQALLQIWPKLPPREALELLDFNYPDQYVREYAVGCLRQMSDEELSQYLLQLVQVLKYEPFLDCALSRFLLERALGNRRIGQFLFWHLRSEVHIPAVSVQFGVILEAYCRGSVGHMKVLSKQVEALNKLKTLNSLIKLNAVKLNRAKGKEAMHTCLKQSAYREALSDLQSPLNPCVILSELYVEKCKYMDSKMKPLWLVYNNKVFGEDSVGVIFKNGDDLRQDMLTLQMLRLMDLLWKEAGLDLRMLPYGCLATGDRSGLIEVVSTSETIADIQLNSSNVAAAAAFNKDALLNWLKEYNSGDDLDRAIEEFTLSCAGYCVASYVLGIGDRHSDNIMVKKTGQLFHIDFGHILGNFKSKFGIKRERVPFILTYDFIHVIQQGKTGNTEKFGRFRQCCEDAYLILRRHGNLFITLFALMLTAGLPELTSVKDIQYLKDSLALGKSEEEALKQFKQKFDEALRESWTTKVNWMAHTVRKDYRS
In short: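 Reported Kd (nM) reflects inhibitor binding to the kinase, as measured by KINOMEscan technology.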

[6] = biological target: T5, PI3Kδ (Homo sapiens, UniProt O00329); assay: Enzyme binding assay (KINOMEscan, DiscoveRx); conditions: PIK3Cδ_h
T5 construct: purchased DiscoveRx Corporation, San Diego (contract service, KINOMEscan)
T5 sequence (O00329 1-1044): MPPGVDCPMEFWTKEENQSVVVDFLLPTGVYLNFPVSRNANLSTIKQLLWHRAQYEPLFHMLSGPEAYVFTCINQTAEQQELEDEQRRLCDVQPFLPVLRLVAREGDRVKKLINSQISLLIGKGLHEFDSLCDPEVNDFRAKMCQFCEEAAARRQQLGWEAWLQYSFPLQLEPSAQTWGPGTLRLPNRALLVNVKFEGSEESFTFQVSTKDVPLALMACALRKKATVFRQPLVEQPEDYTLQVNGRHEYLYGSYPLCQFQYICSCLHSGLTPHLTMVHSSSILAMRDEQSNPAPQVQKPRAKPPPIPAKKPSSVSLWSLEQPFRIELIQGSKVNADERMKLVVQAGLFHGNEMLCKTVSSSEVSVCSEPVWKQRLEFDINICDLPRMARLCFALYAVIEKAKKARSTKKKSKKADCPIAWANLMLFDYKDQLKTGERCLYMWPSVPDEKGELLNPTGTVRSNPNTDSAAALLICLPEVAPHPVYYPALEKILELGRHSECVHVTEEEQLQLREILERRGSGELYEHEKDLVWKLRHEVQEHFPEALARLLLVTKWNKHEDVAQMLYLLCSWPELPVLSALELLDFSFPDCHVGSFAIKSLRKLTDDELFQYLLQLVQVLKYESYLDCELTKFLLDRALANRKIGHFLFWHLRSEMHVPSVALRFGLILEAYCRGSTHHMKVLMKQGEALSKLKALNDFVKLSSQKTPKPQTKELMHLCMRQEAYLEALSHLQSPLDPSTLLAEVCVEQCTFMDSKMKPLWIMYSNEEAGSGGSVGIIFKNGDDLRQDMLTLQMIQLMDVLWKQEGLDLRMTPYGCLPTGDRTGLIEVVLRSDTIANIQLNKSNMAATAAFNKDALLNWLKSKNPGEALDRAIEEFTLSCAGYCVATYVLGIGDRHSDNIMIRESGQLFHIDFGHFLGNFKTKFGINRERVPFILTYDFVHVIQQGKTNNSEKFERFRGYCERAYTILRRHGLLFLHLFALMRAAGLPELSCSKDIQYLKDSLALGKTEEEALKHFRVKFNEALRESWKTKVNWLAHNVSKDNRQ
In short: as §2

[7] = system: Akt phosphorylated at Thr308 in PC-3 cells; assay: Cellular assay: phosphorylation of Akt at Thr308 in PC-3 cells (MSD ELISA); format: cell-based; conditions: PC-3 cells, 60 min compound incubation, MSD ELISA, read-out: IC50 pAkt_Thr308
In short: as §1

SMILES | IC50 ([1]; Homo sapiens, PC-3, 1 h) [nM] | Kd [2] [nM] | Kd [3] [nM] | Kd [4] [nM] | Kd [5] [nM] | melting point [°C] | Kd [6] [nM] | IC50 ([7]; Homo sapiens, PC-3, 1 h) [nM] | IC50 [1] [nM] | IC50 [7] [nM]
Cc1cccc(N(C)C(C)c2cc(C(=O)N(C)C)cc3ncc(N4CCOCC4)nc23)c1 (single isomer, unassigned) [Compound 127] | ~457 | 6460 | 21900 | 25700 | 32 | 80 | 2290 | 331 | – | –
CC(Nc1ccc(F)c(F)c1)c1cc(C(=O)NCCN(C)C)cc2ncc(N3CCOCC3)nc12 (single isomer, unassigned) [Compound 281a] | – | 1510 | 4070 | 23400 | 0.3 | 102 | 72 | – | 5 | 3
CC(Nc1cc(F)cc(F)c1)c1cc(C(=O)N(C)C)cc2ncc(N3CCOCC3)nc12 (stereo not drawn) [Compound 11] | 81 | 631 | 2510 | > 30200 | 1 | 228 | 275 | 42 | – | –
O=C(NCCO)c1cc(CNc2cc(F)cc(F)c2)c2nc(N3CCOCC3)cnc2c1 [Compound 333] | > 513 | 5250 | 17400 | > 30200 | 37 | 265 | 7410 | 148 | – | –
CC(Nc1cc(F)cc(F)c1)c1cc(C(=O)O)cc2ncc(N3CCOCC3)nc12 (single isomer, unassigned) [Compound 83b] | > 513 | 170 | 562 | 1290 | 1 | 180 | 129 | > 513 | – | –
CC(Nc1ccc(F)c(F)c1)c1cc(C(=O)NC[C@@H](C)O)cc2ncc(N3CCOCC3)nc12 (single isomer, unassigned) [Compound 346b] | – | 23400 | 2750 | > 30200 | 741 | 106 | 20900 | – | > 513 | > 513
CN[C@@H]1CCN(C(=O)c2cc(C(C)Nc3ccc(F)c(F)c3)c3nc(N4CCOCC4)cnc3c2)C1 (single isomer, unassigned) [Compound 371b] | – | 12600 | 11000 | > 30200 | 20 | 107 | 5010 | – | > 513 | 251
CC(Nc1cccc(F)c1)c1cc(C(=O)NCC(=O)O)cc2ncc(N3CCOCC3)nc12 (single isomer, unassigned) [Compound 393a] | > 513 | 437 | 1380 | 6760 | 11 | 115 | 1230 | > 513 | – | –
CN(C)C(=O)c1cc(N(C)Cc2cc(F)cc(F)c2)c2nc(N3CCOCC3)cnc2c1 [Compound 358] | > 513 | 10000 | 17800 | > 30200 | 148 | 80 | 2240 | > 513 | – | –

The next lines start with the values.

IC50 ([1]; Homo sapiens, PC-3, 1 h) [nM] | Kd [2] [nM] | Kd [3] [nM] | Kd [4] [nM] | Kd [5] [nM] | melting point [°C] | Kd [6] [nM] | IC50 ([7]; Homo sapiens, PC-3, 1 h) [nM] | IC50 [1] [nM] | IC50 [7] [nM] | SMILES
3 | 41 | 759 | 14800 | 0.2 | 80 | 32 | 4 | – | – | O=C(c1cc(C2CCCN2c2cc(F)cc(F)c2)c2nc(N3CCOCC3)cnc2c1)N1CC2(COC2)C1 (single isomer, unassigned) [Compound 47]
– | 3 | 933 | > 30200 | 0.4 | 146 | 6 | – | ~0.8 | 1 | O=C(c1cc(C2CCCN2c2cc(F)cc(F)c2)c2nc(N3CCOCC3)cnc2c1)N1CCS(=O)(=O)CC1 (single isomer, unassigned) [Compound 38]
12 | 120 | 646 | > 30200 | 1 | 80 | 85 | 17 | – | – | COc1cc(F)cc(N2CCCC2c2cc(C(=O)N(C)C)cc3ncc(N4CCOCC4)nc23)c1 (stereo not drawn) [Compound 32]
15 | 3160 | 3550 | > 30200 | 0.3 | 80 | 91 | 15 | – | – | CC(Nc1ccc(F)c(F)c1)c1cc(C(=O)NCCN(C)C)cc2ncc(N3CCOCC3)nc12 (stereo not drawn) [Compound 281]
– | 8320 | 13500 | > 30200 | 11 | 80 | 3420 | – | 188 | 207 | CNCCN(C)C(=O)c1cc(C(C)Nc2cc(F)c(F)c(F)c2)c2nc(N3CCOCC3)cnc2c1 (single isomer, unassigned) [Compound 335b]
145 | 2400 | 13800 | > 30200 | 4 | 116 | 1100 | 71 | – | – | CC(Nc1cc(F)cc(F)c1)c1cc(CNCC(F)F)cc2ncc(N3CCOCC3)nc12 (stereo not drawn) [Compound 164]
– | 15100 | > 30200 | 21900 | 5620 | 183 | 18600 | – | > 513 | > 513 | CC(Oc1cc(F)cc(F)c1)c1cc(-c2cnc[nH]2)cc2ncc(N3CCOCC3)nc12 (single isomer, unassigned) [Compound 22]
3 | 891 | 2190 | > 30200 | 0.1 | 148 | 49 | 1 | – | – | CC(Nc1cc(F)cc(F)c1)c1cc(C(=O)N(C)CCN(C)C)cc2ncc(N3CCOCC3)nc12 (stereo not drawn) [Compound 180]
5 | 107 | 832 | > 30200 | 1 | 80 | 29 | 6 | – | – | CN(C)C(=O)c1cc(C2CCCN2c2cccc(F)c2)c2nc(N3CCOCC3)cnc2c1 (stereo not drawn) [Compound 28]
52 | 8 | 65 | 676 | 0.3 | 299 | 23 | 23 | – | – | O=C(O)c1cc(C2CCCN2c2cc(F)cc(F)c2)c2nc(N3CCOCC3)cnc2c1 (single isomer, unassigned) [Compound 251]
219 | 5010 | 12300 | > 30200 | 8 | 110 | 2210 | 157 | – | – | CC(Nc1cc(F)cc(F)c1)c1cc(C(=O)NC2CN(CC(F)(F)F)C2)cc2ncc(N3CCOCC3)nc12 (stereo not drawn) [Compound 238]
– | > 30200 | > 10000 | > 30200 | 1020 | 307 | > 30200 | – | > 513 | > 513 | CCN1CCN(C(=O)c2cc(C(C)Nc3cccc(F)c3)c3nc(N4CCOCC4)cnc3c2)CC1 (single isomer, unassigned) [Compound 113]
